Laboratory results taken from ChEMBL document CHEMBL2074461, “Functional characteristics and tissue distribution pattern of organic cation transporter 2 (OCTN2), an organic cation/carnitine transporter” (J Pharmacol Exp Ther, 1999).

Tests used:
[1] = biological target: T1, Organic cation/carnitine transporter 2 (Rattus norvegicus, UniProt O70594); assay: TP_TRANSPORTER: inhibition of TEA uptake (TEA: 20 uM, MPTP: 2500 uM) in OCTN2-expressing HRPE cells; format: functional, cell-based; conditions: human
T1 sequence (O70594 whole entry): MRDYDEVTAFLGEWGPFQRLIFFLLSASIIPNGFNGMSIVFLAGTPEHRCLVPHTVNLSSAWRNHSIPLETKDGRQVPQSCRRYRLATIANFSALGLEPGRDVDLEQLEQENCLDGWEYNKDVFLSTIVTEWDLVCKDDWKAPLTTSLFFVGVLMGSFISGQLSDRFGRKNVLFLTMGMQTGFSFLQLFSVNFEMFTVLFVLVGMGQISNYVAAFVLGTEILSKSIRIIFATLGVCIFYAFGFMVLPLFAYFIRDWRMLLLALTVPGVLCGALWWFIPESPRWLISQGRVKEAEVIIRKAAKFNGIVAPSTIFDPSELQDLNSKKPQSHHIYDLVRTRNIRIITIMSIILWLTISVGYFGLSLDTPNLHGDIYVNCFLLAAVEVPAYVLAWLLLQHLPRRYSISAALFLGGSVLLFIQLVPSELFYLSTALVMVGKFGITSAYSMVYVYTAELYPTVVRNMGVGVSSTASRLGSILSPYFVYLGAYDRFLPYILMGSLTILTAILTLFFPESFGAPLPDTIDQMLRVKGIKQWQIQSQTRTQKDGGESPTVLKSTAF

[2] = biological target: T2, OCTN2 (organic cation/carnitine transporter 2) (Homo sapiens, UniProt O76082); assay: (§1) TP_TRANSPORTER: inhibition of Carnitine uptake (Carnitine: 0.025 uM, MPTP: 2000 uM) in OCTN2-expressing HRPE cells; format: functional, cell-based; design: scale not given: the % may be the effect or the level left; conditions: HRPE cells expressing OCTN2, probe carnitine (0.025 uM), read-out: Activity
T2 sequence (O76082 whole entry): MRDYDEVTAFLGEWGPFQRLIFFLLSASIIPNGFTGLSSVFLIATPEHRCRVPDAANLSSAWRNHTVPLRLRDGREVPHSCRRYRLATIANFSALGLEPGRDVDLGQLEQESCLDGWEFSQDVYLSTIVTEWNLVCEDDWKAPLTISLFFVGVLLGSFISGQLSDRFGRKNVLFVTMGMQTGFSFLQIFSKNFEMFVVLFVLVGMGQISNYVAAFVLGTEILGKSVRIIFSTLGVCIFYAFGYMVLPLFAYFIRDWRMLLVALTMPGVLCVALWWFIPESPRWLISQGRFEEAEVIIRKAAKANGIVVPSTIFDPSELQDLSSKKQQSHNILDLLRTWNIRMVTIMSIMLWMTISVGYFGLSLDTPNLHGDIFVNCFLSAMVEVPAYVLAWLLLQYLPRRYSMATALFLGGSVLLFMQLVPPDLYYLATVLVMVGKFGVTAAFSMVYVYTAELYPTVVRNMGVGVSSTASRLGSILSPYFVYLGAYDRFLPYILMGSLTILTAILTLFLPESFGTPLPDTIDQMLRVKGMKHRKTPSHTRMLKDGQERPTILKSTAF

[3] = biological target: T3, OCTN2 (organic cation/carnitine transporter 2) (Rattus norvegicus, UniProt O70594); assay: as §1; format: functional, cell-based; design: scale not given: the % may be the effect or the level left; conditions: human, HRPE cells expressing OCTN2, probe carnitine (0.025 uM); read-out: Activity
T3 sequence (O70594 whole entry): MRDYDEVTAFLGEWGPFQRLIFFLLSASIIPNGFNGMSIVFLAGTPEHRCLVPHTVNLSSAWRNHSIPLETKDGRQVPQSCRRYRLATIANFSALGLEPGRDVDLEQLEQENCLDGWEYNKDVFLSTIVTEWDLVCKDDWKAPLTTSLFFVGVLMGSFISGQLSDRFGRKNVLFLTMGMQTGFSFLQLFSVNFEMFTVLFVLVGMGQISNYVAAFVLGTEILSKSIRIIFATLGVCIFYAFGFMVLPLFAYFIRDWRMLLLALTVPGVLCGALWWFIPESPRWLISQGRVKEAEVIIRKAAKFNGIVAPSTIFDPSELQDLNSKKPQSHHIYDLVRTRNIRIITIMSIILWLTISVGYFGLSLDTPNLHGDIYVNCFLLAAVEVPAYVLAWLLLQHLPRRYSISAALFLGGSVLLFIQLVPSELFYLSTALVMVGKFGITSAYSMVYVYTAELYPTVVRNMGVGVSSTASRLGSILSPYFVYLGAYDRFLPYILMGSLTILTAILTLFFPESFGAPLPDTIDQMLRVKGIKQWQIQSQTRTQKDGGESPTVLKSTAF

[4] = biological target: T1, Organic cation/carnitine transporter 2; assay: TP_TRANSPORTER: inhibition of TEA uptake (TEA: 20 uM, MPP+: 2500 uM) in OCTN2-expressing HRPE cells; format: functional, cell-based; conditions: human
[5] = biological target: T1, Organic cation/carnitine transporter 2; assay: (§2) TP_TRANSPORTER: uptake in OCTN2-expressing HRPE cells; format: functional, cell-based; conditions: human
[6] = biological target: T3, OCTN2 (organic cation/carnitine transporter 2); assay: TP_TRANSPORTER: inhibition of Carnitine uptake (Carnitine: 0.025 uM, Acetyl-L-carnitine: 500 uM) in OCTN2-expressing HRPE cells; format: functional, cell-based; design: scale not given: the % may be the effect or the level left; conditions: human, HRPE cells expressing OCTN2, probe carnitine (0.025 uM); read-out: Activity
[7] = biological target: T1, Organic cation/carnitine transporter 2; assay: TP_TRANSPORTER: inhibition of TEA uptake (TEA: 20 uM, Amphetamine: 2500 uM) in OCTN2-expressing HRPE cells; format: functional, cell-based; conditions: human
[8] = biological target: T3, OCTN2 (organic cation/carnitine transporter 2); assay: TP_TRANSPORTER: inhibition of Carnitine uptake (Carnitine: 0.025 uM, Betaine: 500 uM) in OCTN2-expressing HRPE cells; format: functional, cell-based; design: scale not given: the % may be the effect or the level left; conditions: human, HRPE cells expressing OCTN2, probe carnitine (0.025 uM); read-out: Activity
[9] = biological target: T3, OCTN2 (organic cation/carnitine transporter 2); assay: in vitro; conditions: human, HRPE cells expressing OCTN2, probe carnitine (0.025 uM)
Description: (§3) TP_TRANSPORTER: inhibition of Carnitine uptake (Carnitine: 0.025 uM, Choline: 2000 uM) in OCTN2-expressing HRPE cells

[10] = biological target: T2, OCTN2 (organic cation/carnitine transporter 2); assay: in vitro; conditions: HRPE cells expressing OCTN2, probe carnitine (0.025 uM)
Description: as §3

[11] = biological target: T3, OCTN2 (organic cation/carnitine transporter 2); assay: in vitro; conditions: human, HRPE cells expressing OCTN2, probe carnitine (0.025 uM); remark: listed apart in the source
Description: TP_TRANSPORTER: inhibition of Carnitine uptake (Carnitine: 0.025 uM, Cimetidine: 2000 uM) in OCTN2-expressing HRPE cells

[12] = biological target: T2, OCTN2 (organic cation/carnitine transporter 2); assay: TP_TRANSPORTER: inhibition of Carnitine uptake (Carnitine: 0.025 uM, Desipramine: 500 uM) in OCTN2-expressing HRPE cells; format: functional, cell-based; design: scale not given: the % may be the effect or the level left; conditions: HRPE cells expressing OCTN2, probe carnitine (0.025 uM), read-out: Activity
[13] = biological target: T1, Organic cation/carnitine transporter 2; assay: TP_TRANSPORTER: inhibition of TEA uptake (TEA: 20 uM, Desipramine: 2500 uM) in OCTN2-expressing HRPE cells; format: functional, cell-based; conditions: human
[14] = biological target: T1, Organic cation/carnitine transporter 2; assay: TP_TRANSPORTER: inhibition of TEA uptake (TEA: 20 uM, Guanidine: 2500 uM) in OCTN2-expressing HRPE cells; format: functional, cell-based; conditions: human
[15] = biological target: T1, Organic cation/carnitine transporter 2; assay: TP_TRANSPORTER: inhibition of TEA uptake (TEA: 20 uM, Methanphetamine: 2500 uM) in OCTN2-expressing HRPE cells; format: functional, cell-based; conditions: human
[16] = biological target: T1, Organic cation/carnitine transporter 2; assay: TP_TRANSPORTER: inhibition of TEA uptake (TEA: 20 uM, Norepinephrine: 2500 uM) in OCTN2-expressing HRPE cells; format: functional, cell-based; conditions: human
[17] = biological target: T1, Organic cation/carnitine transporter 2; assay: TP_TRANSPORTER: inhibition of TEA uptake (TEA: 20 uM, Procainamide: 2500 uM) in OCTN2-expressing HRPE cells; format: functional, cell-based; conditions: human
[18] = biological target: T4, Organic cation/carnitine transporter 2 (Homo sapiens, UniProt O76082); assay: as §2; format: functional, cell-based
T4 sequence (O76082 whole entry): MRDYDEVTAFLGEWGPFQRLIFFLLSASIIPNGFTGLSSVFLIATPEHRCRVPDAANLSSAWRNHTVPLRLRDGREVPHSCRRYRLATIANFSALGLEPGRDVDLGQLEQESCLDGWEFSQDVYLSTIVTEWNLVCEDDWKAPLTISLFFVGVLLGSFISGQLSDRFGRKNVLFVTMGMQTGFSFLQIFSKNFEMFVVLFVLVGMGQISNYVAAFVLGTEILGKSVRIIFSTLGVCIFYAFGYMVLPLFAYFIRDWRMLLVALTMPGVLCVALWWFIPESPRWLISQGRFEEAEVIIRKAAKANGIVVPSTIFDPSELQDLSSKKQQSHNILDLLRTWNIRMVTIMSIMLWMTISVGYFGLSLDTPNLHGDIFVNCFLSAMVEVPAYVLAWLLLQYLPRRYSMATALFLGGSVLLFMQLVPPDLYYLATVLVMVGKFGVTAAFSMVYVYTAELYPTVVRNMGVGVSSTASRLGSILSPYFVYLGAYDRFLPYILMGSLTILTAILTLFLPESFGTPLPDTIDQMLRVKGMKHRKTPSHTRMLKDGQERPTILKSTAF

[19] = biological target: T1, Organic cation/carnitine transporter 2; assay: TP_TRANSPORTER: inhibition of TEA uptake (TEA: 20 uM, Serotonin: 2500 uM) in OCTN2-expressing HRPE cells; format: functional, cell-based; conditions: human
[20] = biological target: T1, Organic cation/carnitine transporter 2; assay: TP_TRANSPORTER: inhibition of TEA uptake (TEA: 20 uM, THA: 2500 uM) in OCTN2-expressing HRPE cells; format: functional, cell-based; conditions: human
[21] = biological target: T1, Organic cation/carnitine transporter 2; assay: TP_TRANSPORTER: inhibition of TEA uptake (TEA: 20 uM, TMA: 2500 uM) in OCTN2-expressing HRPE cells; format: functional, cell-based; conditions: human
[22] = biological target: T2, OCTN2 (organic cation/carnitine transporter 2); assay: in vitro; conditions: HRPE cells expressing OCTN2, probe carnitine (0.025 uM); remark: listed apart in the source
Description: (§4) TP_TRANSPORTER: inhibition of Carnitine uptake (Carnitine: 0.025 uM, TEA: 2000 uM) in OCTN2-expressing HRPE cells

[23] = biological target: T3, OCTN2 (organic cation/carnitine transporter 2); assay: in vitro; conditions: human, HRPE cells expressing OCTN2, probe carnitine (0.025 uM); remark: listed apart in the source
Description: as §4

[24] = substrate: CC[N+](CC)(CC)CC; assay: cells, lysate or membranes named
[25] = substrate: C[N+](C)(C)CC(O)CC(=O)[O-]; assay: as §2; format: functional, cell-based

CN1CC=C(c2ccccc2)CC1
Inhibition [1]: inhibitor [50-75 % inhibition]
activity at 2000 µM [2]: 47%
activity at 2000 µM [3]: 4%

C[n+]1ccc(-c2ccccc2)cc1
Inhibition [4]: inhibitor [50-75 % inhibition]

CC(=O)O[C@H](CC(=O)[O-])C[N+](C)(C)C [ACETYLCARNITINE]
Activity [5]: substrate [+]
activity at 500 µM [6]: 1%

CC(N)Cc1ccccc1 (stereo unspecified) [AMPHETAMINE]
Inhibition [7]: inhibitor [20-30 % inhibition]

C[N+](C)(C)CC(=O)O [BETAINE]
activity at 500 µM [8]: 51%

C[N+](C)(C)CCO [CHOLINE]
activity at 2000 µM [9]: 24%
activity at 2000 µM [10]: 82%

CN/C(=N/CCSCc1nc[nH]c1C)NC#N [CIMETIDINE]
activity at 2000 µM [11]: 29%

CNCCCN1c2ccccc2CCc2ccccc21 [DESIPRAMINE]
activity at 500 µM [12]: 0%
Inhibition [13]: inhibitor [90-95 % inhibition]

N=C(N)N [GUANIDINE]
Activity [14]: is not an inhibitor [-]

CN[C@@H](C)Cc1ccccc1 [METHAMPHETAMINE]
Inhibition [15]: inhibitor [20-30 % inhibition]

NC[C@H](O)c1ccc(O)c(O)c1 [NOREPINEPHRINE]
Activity [16]: is not an inhibitor [-]

CCN(CC)CCNC(=O)c1ccc(N)cc1 [PROCAINAMIDE]
Inhibition [17]: inhibitor [50-75 % inhibition]

CCC(=O)OC(CC(=O)[O-])C[N+](C)(C)C (stereo unspecified) [Propionyl-Carnitine]
Activity [5]: substrate [+]
Activity [18]: substrate [+]

NCCc1c[nH]c2ccc(O)cc12 [SEROTONIN]
Activity [19]: is not an inhibitor [-]

CCCCCC[N+](CCCCCC)(CCCCCC)CCCCCC [TETRAHEXYLAMMONIUM]
Inhibition [20]: inhibitor [90-95 % inhibition]

C[N+](C)(C)C.[Cl-] [TETRAMETHYLAMMONIUM]
Inhibition [21]: inhibitor [20-30 % inhibition]

CC[N+](CC)(CC)CC [TETRYLAMMONIUM]
activity at 2000 µM [22]: 40%
activity at 2000 µM [23]: 4%

B1: Organic cation/carnitine transporter 2 (Rattus norvegicus) (protein)
chain: MRDYDEVTAFLGEWGPFQRLIFFLLSASIIPNGFNGMSIVFLAGTPEHRCLVPHTVNLSSAWRNHSIPLETKDGRQVPQSCRRYRLATIANFSALGLEPGRDVDLEQLEQENCLDGWEYNKDVFLSTIVTEWDLVCKDDWKAPLTTSLFFVGVLMGSFISGQLSDRFGRKNVLFLTMGMQTGFSFLQLFSVNFEMFTVLFVLVGMGQISNYVAAFVLGTEILSKSIRIIFATLGVCIFYAFGFMVLPLFAYFIRDWRMLLLALTVPGVLCGALWWFIPESPRWLISQGRVKEAEVIIRKAAKFNGIVAPSTIFDPSELQDLNSKKPQSHHIYDLVRTRNIRIITIMSIILWLTISVGYFGLSLDTPNLHGDIYVNCFLLAAVEVPAYVLAWLLLQHLPRRYSISAALFLGGSVLLFIQLVPSELFYLSTALVMVGKFGITSAYSMVYVYTAELYPTVVRNMGVGVSSTASRLGSILSPYFVYLGAYDRFLPYILMGSLTILTAILTLFFPESFGAPLPDTIDQMLRVKGIKQWQIQSQTRTQKDGGESPTVLKSTAF
Km [24]: 63 µM
Km [25]: 14.8 µM
